Assay results: PMC5667785 (International Journal of Nanomedicine, 2017)

Key:
[1] = Critical micelle concentration by surface-tension measurements; assay type: physicochemical
[2] = Cur stability in Krebs–Ringer intestinal circulation-perfusion solution; assay type: physicochemical; conditions: 2 hours at 37°C
liver microsomal enzymes = conditions: within 30 minutes ref 14; cited from earlier work

Row | Compound | Critical micelle concentration [1] [µg/mL] | Cur stability in the KR solution [2] | Biotransformation of Cur to sulfate or glucuronide conjugates (liver microsomal enzymes) [%]
1 | TCA-PEG100-monostearate [S100-TCA] | 15.86 ± 0.53 | – | –
2 | COc1cc(/C=C/C(=O)CC(=O)/C=C/c2ccc(O)c(OC)c2)ccc1O [Cur, Curcumin] | – | neither degraded | 90
